Data on 21 molecules can be found in ChEMBL document CHEMBL1938330, “Inhibitory effects of polyphenols toward HCV from the mangrove plant Excoecaria agallocha L” (Bioorg Med Chem Lett, 2012).

A short description of data set [1]: Inhibition of Hepatitic C virus NS3/4A protease by FRET assay. Set-up: species or system Hepacivirus hominis.
Data set [2] can be described thus: Cytotoxicity against human Huh7.5 cells after 96 hrs by MTT assay. Format: cell-based, Huh-7. For orientation: Formazan colour is commonly taken as a measure of viable cells.
Data set [3] can be described thus: Selectivity index, ratio of CC50 for human Huh7.5 cells to EC50 for Hepatitis C virus infected in human HuH7.5 cells. Format: toxicity, cell-based, Huh-7. To be noted: read-out: Ratio CC50/EC50.
The subject of another data set is Hepatitis C virus. The data set is described as follows: Antiviral activity against Hepatitis C virus infected in human Huh7.5 cells assessed as inhibition of viral replication after 96 hrs by quantitative RT-PCR analysis. The conditions noted are these: Huh-7, 96 h. Format: functional, organism-based, Hepacivirus hominis.

For orientation: IC50 means the midpoint of a concentration-inhibition curve. By CC50 is commonly meant the concentration at which the toxic effect on the cells reaches its halfway point. Low values mean harm at low concentration, high ones better tolerance by the cells. The term EC50 denotes the concentration at which the effect is half-maximal.

The molecule `COc1cc(/C=C/CO[C@@H]2O[C@H](CO)[C@@H](O)[C@H](O)[C@H]2O)cc(OC)c1O` displayed an IC50 in data set [1] above 10 µg/mL. On the same count and under the same terms, the value for `COc1ccc(CO)cc1O[C@@H]1O[C@H](COC(=O)c2cc(O)c(O)c(O)c2)[C@@H](O)[C@H](O)[C@H]1O` was above 10 µg/mL.

Turning to `COc1cc(CO[C@@H]2O[C@H](CO)[C@@H](O)[C@H](O)[C@H]2O)cc(OC)c1O`, the IC50 in data set [1] was above 10 µg/mL.

Regarding `O=C(O[C@@H]1O[C@@H]2COC(=O)c3cc(O)c(O)c(O)c3-c3c(cc(O)c(O)c3O)C(=O)O[C@@H]([C@@H]2O)[C@H]1OC(=O)c1cc(O)c(O)c(O)c1)c1cc(O)c(O)c(O)c1`, the IC50 in data set [1] was above 10 µg/mL. Still for that read-out and setting: then `O=C(O[C@@H]1O[C@@H]2COC(=O)c3cc(O)c(O)c(O)c3-c3c(cc(O)c(O)c3O)C(=O)O[C@H]([C@H]1O)[C@@H]2OC(=O)c1cc(O)c(O)c(O)c1)c1cc(O)c(O)c(O)c1`, with above 10 µg/mL.

In data set [2], `O=C(O)C[C@@H]1C(=O)O[C@H]2[C@@H]3OC(=O)c4cc(O)c(O)c(O)c4-c4c(cc(O)c(O)c4O)C(=O)OC[C@H]2O[C@@H](OC(=O)c2cc(O)c(O)c(O)c2)[C@@H]3OC(=O)c2cc(O)c(O)c3c2[C@H]1[C@H](O)C(=O)O3` [CHEBULAGIC ACID] returned a CC50 at 96 h of 105 µM. The IC50 in data set [1] (read-out: IC50) was determined as 9.03 µM. In addition, the selectivity ratio in data set [3] is 4.7. In the data set on Hepatitis C virus, the concentration giving a half-maximal response (EC50) came to 22.2 µM.

Turning to `Oc1cc(O)c2c(c1)O[C@H](c1ccc(O)c(O)c1)[C@@H](O)C2` [CIANIDANOL], the IC50 in data set [1] was above 10 µg/mL. On to `COc1ccc2c(O[C@@H]3C[C@H]4C(=O)N[C@]5(C(=O)O)C[C@H]5/C=C\CCCCC[C@H](NC(=O)OC5CCCC5)C(=O)N4C3)cc(-c3csc(NC(C)C)n3)nc2c1` [CILUPREVIR], for which the IC50 in data set [1] (read-out: IC50) was found to be 1.54 µM. As to `O=C(O[C@@H]1O[C@@H]2COC(=O)c3cc(O)c(O)c(O)c3-c3c(cc(O)c(O)c3O)C(=O)O[C@H]([C@H]1O)[C@@H]2O)c1cc(O)c(O)c(O)c1` [CORILAGIN], the CC50 at 96 h in data set [2] came to 96.7 µM. In addition, in data set [1] (read-out: IC50), the IC50 turned out to be 3.45 µM. Moreover, the selectivity ratio in data set [3] was 7.1. Also, in the data set with Hepatitis C virus, the EC50 turned out to be 13.6 µM.

As for `COc1cc(O[C@@H]2O[C@H](CO[C@@H]3O[C@H](C)[C@@H](O)[C@H](O)[C@@H]3O)[C@@H](O)[C@H](O)[C@H]2O)ccc1O` [CUNEATASIDES D], in data set [1], the IC50 is above 10 µg/mL. Same read-out and setting: the value for `O=c1oc2c(O)c(O[C@@H]3OC[C@@H](O)[C@H](O)[C@H]3O)cc3c(=O)oc4c(O)c(O)cc1c4c23` [ELLAGIC ACID 4-O-XYLOPYRANOSIDE] was above 10 µg/mL; that for `OC[C@H]1O[C@@H](Sc2c(O)cc(O)c3c2O[C@H](c2ccc(O)c(O)c2)[C@@H](O)C3)[C@H](O)[C@@H](O)[C@@H]1O` [EXCOECARIPHENOL A] was above 10 µg/mL; that for `OC[C@H]1O[C@@H](Sc2c(O)cc(O)c3c2O[C@H](c2cc(O)c(O)c(O)c2)[C@@H](O)C3)[C@H](O)[C@@H](O)[C@@H]1O` [EXCOECARIPHENOL B] was above 10 µg/mL.

`COC(=O)Cc1c(C(=O)O[C@H]2[C@H](OC(=O)c3cc(O)c(O)c(O)c3)O[C@@H]3COC(=O)c4cc(O)c(O)c(O)c4-c4c(cc(O)c(O)c4O)C(=O)O[C@H]2[C@@H]3O)cc(O)c(O)c1O` [EXCOECARIPHENOL C] had a half-maximal inhibitory concentration (IC50) in data set [1] above 10 µg/mL. Consider `O=C(O[C@@H]1O[C@@H]2COC(=O)c3cc(O)c(O)c4oc5c(O)c(O)cc(c5c34)C(=O)O[C@@H]3[C@H]1OC(=O)c1cc(O)c(O)c4c1[C@@H]1[C@@]5(C[C@]6(O)OC[C@@H](O)[C@@H]6O[C@@H]5C(O)(O)C(O)(O)[C@]1(O)O4)C(=O)O[C@@H]32)c1cc(O)c(O)c(O)c1` [EXCOECARIPHENOL D], for which, in data set [2], the CC50 at 96 h was determined as 56.2 µM. Also, in data set [1] (read-out: IC50), the IC50 was 6.93 µM. Moreover, the selectivity ratio in data set [3] was determined as 4.5. Besides, the EC50 in the data set on Hepatitis C virus was found to be 12.6 µM. Molecule `O=C1O[C@H]2[C@H](O)[C@@H](OC(=O)c3cc(O)c(O)c4c3[C@@H]3C1=CC(=O)C(O)(O)C3(O)O4)[C@H](OC(=O)c1cc(O)c(O)c(O)c1)O[C@@H]2CO` (stereo partly drawn) [FUROSIN] displayed an IC50 in data set [1] above 10 µg/mL. Same read-out and setting: then `Oc1cc(O)c2c(c1)O[C@H](c1cc(O)c(O)c(O)c1)[C@@H](O)C2` [GALLOCATECHIN], with above 10 µg/mL. Consider `O=C1O[C@H]2[C@@H]3OC(=O)c4cc(O)c(O)c(O)c4-c4c(cc(O)c(O)c4O)C(=O)OC[C@H]2O[C@@H](OC(=O)c2cc(O)c(O)c(O)c2)[C@@H]3OC(=O)c2cc(O)c(O)c3c2[C@@H]2C1=CC(=O)[C@](O)(O3)C2(O)O` [GERANIIN], for which the midpoint of cytotoxicity in data set [2], the CC50 at 96 h, lay at 63.4 µM. Further, the IC50 in data set [1] (read-out: IC50) is 8.91 µM. The selectivity ratio in data set [3] turned out to be 1.9. In addition, the EC50 with Hepatitis C virus stood at 33.2 µM. In data set [1], `C[C@@H]1O[C@@H](OC[C@H]2O[C@@H](OCc3ccccc3)[C@H](O)[C@@H](O)[C@@H]2O)[C@H](O)[C@H](O)[C@H]1O` [HYDRANGEIFOLIN I] returned an IC50 above 10 µg/mL. On the same count and under the same terms, the value for `O=c1c(O[C@@H]2O[C@H](CO)[C@@H](O)[C@H](O)[C@H]2O)c(-c2ccc(O)c(O)c2)oc2cc(O)cc(O)c12` [ISOQUERCETIN] was above 10 µg/mL.

For `COc1cc(O[C@@H]2O[C@H](CO)[C@@H](O)[C@H](O)[C@H]2O)cc(OC)c1O` [KOABURASIDE], the 50% inhibitory concentration (IC50) in data set [1] is above 10 µg/mL.
